Data from US4861772A, “Method and composition to treat panic syndrome” (Hoffmann-La Roche Inc., priority 1988, dated 1989).

Legend:
[1] = tested on: patients with panic syndrome; assay: Side effects in the clinical study in patients with panic syndrome; type: in vivo, human
Description: (§1) The clinical study is a double-blind, parallel group study in which in each case 12 patients with panic syndrome were treated either with compound A, that is, tablets containing 0.5 mg of active substance or with a corresponding placebo. The course of the trial was the following. After examining the inclusion and exclusion criteria and recording the basic data, the patients each received 20 tablets with instructions to take one tablet at the approach or beginning of the next panic attack. The medicaments previously used had been withdrawn before the commencement of the study. In the case of a satisfactory outcome of treatment the initial dosage was to be used a once more. Then, for the second investigation, the investigator was to be consulted. In the case of an unsatisfactory outcome of therapy, the dosage in the case of the second panic attack was to be increased to two tablets, which dosage was to be repeated in the case of success and, in the case of failure, was to be increased to three tablets. […] Patients with ineffective medication were to be discharged from the trial. Patients in whom an effective dosage had been found would use that dose in the next twelve panic states. In cases in which withdrawal phenomena of the preceding treatment played a role, the twelve treatments of the main treatment phase can be extended with an additional twelve dosages in a further phase, additional phase.
(§2) During the treatment, the patients were required to carry a treatment day book. On the basis of the remarks contained therein, the statements of the patients as well as specific observations, the results of the trial at the end of the titration phase (investigation 2), at the end of the main treatment phase (investigation 3) and, if desired, at the end of the additional phase (investigation 4) were introduced into the trial data by the investigator. The following psychiatric scales were filled out as standardized comparative investigations at all points in time of the trial: anxiety scale according to Covi, depression scale according to Raskin, self-evaluated anxiety scale (SAS) and self-evaluated depression scale (SDS) according to Zung, as well as the withdrawal symptom scale (WSS) according to Merz & Ballmer.
The following side effects were found:
^3 MRA = "Mean Risk per Administration", i.e. the risk at which the
particular side effect is incurred by a single intake of the medicament.
From the list of side effects, it is evident that the […] has less benzodiazepine-typical side effects of the sedative and motor type.

[2] = tested on: patients with panic syndrome; assay: Double-blind, parallel group clinical study in patients with panic syndrome (end point analysis); type: in vivo, human
Description: The results of a clinical study will be referred to as an example of the use and the effect of discontinuous therapy of panic attacks by means of compound A.
as §1, §2
In each case, 12 patients were treated with compound A or placebo. In the group treated with compound A, 7 were male and 5 female with an average age of 33±5.4 years, of which--according to the DSM-III classification--2 suffered from panic syndrome without agoraphobia and 10 suffered from panic syndrome with agoraphobia. The diagnosis of a major depression was also established in 6 cases.
The average duration of the disorder amounted to 98±83 months in the group treated with compound A and to 143±164 months in the placebo group. The weekly frequency of panic states was 5.6±3.2 in the group treated with compound A and 7.6±5.6 in the placebo group. In this calculation, a runaway in the placebo group which fell outside the average value and the five-fold standard deviation was not taken into consideration. The average duration of the panic attacks was 27±17 minutes in the group treated with compound A and 25±16 minutes in the placebo group. Nine (9) patients treated with compound A and 10 placebo patients were able to predict attacks with an average prediction time of 11±12 minutes in the group treated with compound A and 10±7 minutes in the placebo group.
Because of the different lengths of the total treatment, average duration 43±27 days in the group treated with compound A and 28±32 days in the placebo group and because of the unequal distribution of the exclusions and drop-outs, the following results are presented in the form of an end point analysis: […]

patients = assay: Clinically relevant effects noticed by patients (onset); type: in vivo, human; settings: 1 mg perorally in tablet form; generally
Description: (§3) After 1 mg of compound A has been taken perorally in tablet form a maximal active substance level is already reached after 45 minutes. Clinically relevant effects, that is, effects noticed by patients, generally occur already after 10 minutes.

[3] = Plasma level after peroral intake of compound A in tablet form; type: in vivo; settings: human, po, 1 mg perorally in tablet form
Description: as §3

## CC(C)(C)OC(=O)c1ncn2c1[C@@H]1CCCN1C(=O)c1c(Br)cccc1-2 [Compound A, t-butyl (S)-8-bromo-11,12,13,13a-tetrahydro-9-oxo-9H-imidazo[1,5-a]pyrrolo[2,1-c][1,4]benzodiazepine-1-carboxylate]
[1]; CGI evaluation, in total
  quality of the observed side effects: only of minimal quality
[1]; all together
  tolerance: satisfactory tolerance
[1]; number of patients, of 12
  Coarse muscular relaxation, No. Pat.: 1
  Dopiness, No. Pat.: 5
  Drowsiness, No. Pat.: 9
  Dry mouth, No. Pat.: 1
  Headache, No. Pat.: 1
  Nausea, No. Pat.: 1
  Slurred speech/"heavy tongue", No. Pat.: 2
  Unsteadiness when walking or standing, No. Pat.: 4
[1]; number registered
  Coarse muscular relaxation, No. Reg.: 2
  Dopiness, No. Reg.: 60
  Drowsiness, No. Reg.: 45
  Dry mouth, No. Reg.: 2
  Headache, No. Reg.: 2
  Nausea, No. Reg.: 9
  Slurred speech/"heavy tongue", No. Reg.: 5
  Unsteadiness when walking or standing, No. Reg.: 13
[1]; on average
  duration of side effects as part of the total treatment period: 0.96±1.01%
  total duration of side effects: 7.8 ± 7.6 h
[1]; risk per single intake
  Coarse muscular relaxation, MRA (Mean Risk per Administration): 0.7%
  Dopiness, MRA (Mean Risk per Administration): 21.8%
  Drowsiness, MRA (Mean Risk per Administration): 16.4%
  Dry mouth, MRA (Mean Risk per Administration): 0.7%
  Headache, MRA (Mean Risk per Administration): 0.7%
  Nausea, MRA (Mean Risk per Administration): 3.3%
  Slurred speech/"heavy tongue", MRA (Mean Risk per Administration): 1.8%
  Unsteadiness when walking or standing, MRA (Mean Risk per Administration): 4.7%
[2]; conclusion from the clinical comparison
  antipanic activity: specific antipanic activity
[2]; n = 12, p < 0.05 vs placebo
  Δ frequency of attack per week (n): -2.6 ± 3.3 n
[2]; n = 12, p < 0.05 vs placebo (Mann-Whitney U test)
  Average treatment period: 43 ± 27 days
[2]; n.s. vs placebo
  Δ withdrawal symptom scale (WSS): -3.9 ± 6.8
[2]; p < 0.001 vs placebo
  Δ Covi anxiety scale (outside evaluation): 3.3 ± 3.2
  Δ Raskin depression scale (outside evaluation): 1.9 ± 3.2
  Δ Zung anxiety scale (self evaluation): 6.4 ± 8.5
  Δ Zung depression scale (self evaluation): 4.5 ± 9.0
[2]; scale as initial intensity, p < 0.001 vs placebo
  Average improvement in phobias: 2.2 ± 1.0
[2]; score 4 = complete, 3 = strong, 2 = weak, 1 = no effect, p < 0.01 vs placebo
  Reduction in the intensity of attack: 3.5 ± 0.9
[2]; tablets of 0.5 mg, n = 12, p < 0.001 vs placebo
  Average number of tablets at the end of treatment: 1.4 ± 0.9
[2]; vs placebo
  secondary panic symptoms in untreated intervals between successive panic attacks: reduced significantly better than by placebo
patients
  time to clinically relevant effects (noticed by patients): 10 min
[3]; read-out: time to maximal active substance level (converted)
  Tmax: 0.75 h
[3]; read-out: β-half life (converted)
  half-life: 2.25 h
